Values joined by “and” are separate entries in the source; they are usually repeats but may differ in a detail not shown here. Equal entries are not always repeated. Where two headings read alike, the source gives them in different places.
Columns and labels:
[1] = tested on: murine macrophage J774.A1 cells; test: Nitric oxide (NO) inhibition in LPS-stimulated J774.A1 cells (Griess); type: cell-based; details: for prevention of LPS-induced NO release from J774.A1 macrophages: in words
Method: Murine monocytes (J774.A1 cells) produce measurable quantities of NO on exposure to LPS and provide a model for the rapid assessment of compounds to neutralize LPS activity. […] In all experiments, Polymyxin B (PMB), a decapeptide antibiotic, known to bind and neutralize LPS,^29;47;48 is used as a reference compound.
Nitric oxide production is measured as total nitrite in murine macrophage J774.A1 cells using the Griess reagent system.^53;54 Murine macrophage J774.A1 cells are grown in RPMI-1640 cell-culture medium containing L-glutamine and sodium bicarbonate and supplemented with 10% fetal bovine serum, 1% L-glutamine-penicillin-streptomycin solution, and 200 μg/ml L-arginine at 37° C. in a 5% CO2 atmosphere. Cells are plated at ˜2×10^6/ml in a volume of 40 μl/well, in 384 well, flat-bottomed, cell culture treated microtiter plates until confluency and subsequently stimulated with 100 ng/ml lipopolysaccharide (LPS). Concurrent to LPS stimulation, serially diluted concentrations of test compounds are added to the cell medium and left to incubate overnight for 16 h. Polymyxin B is used as reference compound in each plate. Positive—(LPS stimulation only) and negative-controls (J774.A1 medium only) are included in each experiment. Nitrite concentrations are measured adding 30 μl of supernatant to equal volumes of Griess reagents (50 μl/well; 0.1% NED solution in ddH2O and 1% sulfanilamide, 5% phosphoric acid solution in ddH2O) and incubating for 15 minutes at room temperature in the dark. Absorbance at 535 nm is measured using a Molecular Devices Spectramax M2 multifunction plate reader (Sunnyvale, Calif.). Nitrite concentrations are interpolated from standard curves obtained from serially diluted sodium nitrite standards.

[2] = type: binding, E. coli 0111:B4; details: for EC50: E. coli 0111:B4 LPS, Tables 1-3, read-out: ED50 (half-maximal effective displacement of BC probe from LPS)
Method: Polymyxin B (PMB), a peptide antibiotic known to bind and neutralize LPS^47 serves as the positive control and reference compound for every plate, enabling the quantitative assessment of repeatability and reproducibility (CV and Z′ factors) for the assay. Robotic liquid handling is performed on a Precision 2000 automated microplate pipetting system, programmed using the Precision Power software, Bio-Tek Instruments Inc., VT, USA. Stock solutions of LPS (5 mg/ml; E. coli 0111:B4; procured from Sigma) and BC (500 μM) are prepared in Tris buffer (pH 7.4, 50 mM). 1 ml each of the LPS and BC stocks are mixed and diluted in Tris buffer to a final volume of 100 ml, yielding final concentrations of 50 μg/ml of LPS and 5 μM BC. 40 μl of this BC:LPS mixture is added to each well of the plate using the Precision 2000. Fluorescence measurements are made at 25° C. on a Fluoromax-3 with Micromax Microwell 384-well plate reader, using DataMax software, Jobin Yvon Inc., N.J. The BC excitation wavelength is 580 nm, emission spectra are taken at 620 nm with both emission and excitation monochromator bandpasses set at 5 nm.

NFκB = NFκB inhibition (LPS-induced); type: cell-based; details: for prevention of LPS-induced NFκβ cytokine release from stimulated lymphocytes: in words
From the text: A focused library of alkyl or acyl c-substituted lysine-spermine conjugates is synthesized with even carbon-numbered chains of C14 to C20 lengths. […] Furthermore, the data showhigh activity compounds are those with chain lengths between C16 and C20. […] The exemplary compounds L-Lys-ε-(stearoyl)-N^1-spermine, D-Lys-ε-(stearoyl)-N^1-spermine, L-Lys-ε-(octadecanyl)-N^1-spermine and D-Lys-ε-(octadecanyl)—N1-spermine all show high activity for the prevention of LPS-induced NFκβ cytokine release from stimulated lymphocytes. Furthermore, the exemplary compounds L-Lys-ε-(stearoyl)-N^1-spermine, D-Lys-ε-(stearoyl)-N^1-spermine, L-Lys-ε-(octadecanyl)-N^1-spermine and D-Lys-ε-(octadecanyl)-N^1-spermine all show high activity for the prevention of LPS-induced NO release from stimulated lymphocytes.

[3] = J774.A1 cells, 100 ng/ml LPS, 16 h, Tables 1-3, read-out: NO IC50
[4] = Mus musculus, J774.A1, 16 h, J774.A1 cells, 100 ng/ml LPS, 16 h, Tables 1-3, read-out: NO IC50
[5] = Table 7 focused library, NO inhibition, read-out: NO
[6] = Mus musculus, J774.A1, 16 h, read-out: NO IC50, J774.A1 cells, 100 ng/ml LPS, 16 h, Tables 1-3
[7] = Mus musculus, J774.A1, read-out: IC50 (LPS neutralization, NO)

| Compound | IC50 [1, 4] | EC50 [2] | IC50 [1, 5] | other results |
| --- | --- | --- | --- | --- |
| CCCCCCCCCCCCCCCCCCCC(=O)NCCCCC(N)C(=O)NCCCNCCCCNCCCN [Compound 7, L-Lys-ε-(eicosanoyl)-N^1-spermine] | 1.2 µM | 6.46 µM |  | IC50 [1, 3]: 1.21 µM; IC50 ([1]; Mus musculus, J774.A1, Table 7 focused library, NO inhibition, read-out: NO): 4.69 µM; IC50 (NFκB; Table 7 focused library, NFκB inhibition, read-out: NFκ B): 1.24 µM |
| CCCCCC/C=C/CCCCCCCCCC(=O)NCCCCC(N)C(=O)NCCCNCCCCNCCCN (stereo not shown) [Compound 10] |  | 4.2 µM |  |  |
| CCCCCCCCCCCCCCCCC(=O)NCCCCC(N)C(=O)NCCCNCCCCNCCCN [Compound 11, L-Lys-ε-(heptadecanoyl)-N^1-spermine] | 4.49 µM | 6.71 µM |  |  |
| CCCCCCCCCCCCCCCCS(=O)(=O)NCCCCC(N)C(=O)NCCCNCCCCNCCCN [Compound 12, L-Lys-ε-(hexadecanesulfonamide)-N^1-spermine] |  | 5.93 µM |  |  |
| CCCCCCCCCCCCCCCC(=O)NCCCCC(N)C(=O)NCCCNCCCCNCCCN [Compound 13, D-Lys-ε-(palmitoyl)-N^1-spermine] |  | 10 µM and 9.94 µM | 13 µM | IC50 [1, 3]: 2.29 µM |
| CCCC/C=C/CCCCCCCCCC(=O)NCCCCC(N)C(=O)NCCCNCCCCNCCCN (stereo not shown) [Compound 15] |  | 3.8 µM and 3.82 µM |  | IC50 [1, 3]: 8.85 µM; IC50 [1, 6]: 8.8 µM |
| CCCCCCCC(=O)NCCCCC(N)C(=O)NCCCNCCCCNCCCN [Compound 17, L-Lys-ε-(octanoyl)-N^1-spermine] | 160 µM | 13 µM |  | IC50 [1, 3]: 162 µM |
| CC(C)C(=O)NCCCCC(N)C(=O)NCCCNCCCCNCCCN [Compound 18, D-Lys-ε-(isopropoyl)-N^1-spermine] | > 1000 µM | 299 µM |  |  |
| CC(C)(C)C(=O)NCCCCC(N)C(=O)NCCCNCCCCNCCCN (stereo not shown) [Compound 19] | > 1000 µM | 327 µM |  |  |
| NCCCNCCCCNCCCNC(=O)C(N)CCCCNC(=O)CC1CC2CCC1C2 [Compound 20, D-Lys-ε-(2-norbornaneacetoyl)-N^1-spermine] |  | 16.2 µM |  |  |
| NCCCNCCCCNCCCNC(=O)C(N)CCCCNC(=O)c1ccc(-c2ccccc2)cc1 [Compound 21, D-Lys-ε-(4-biphenycarboxamide)-N^1-spermine] |  | 7.9 µM and 7.86 µM |  | IC50 [1, 3]: 124 µM; IC50 [1, 6]: > 100 µM |
| NCCCNCCCCNCCCNC(=O)C(N)CCCCNC(=O)CCCc1ccc2ccc3cccc4ccc1c2c34 [Compound 22, L-Lys-ε-(4-(1-pyrene)-butanoyl)-N^1-spermine] |  | 7.1 µM and 7.09 µM |  | IC50 [1, 3]: 108 µM; IC50 [1, 6]: > 100 µM |
| COCCOCCOCC(=O)NCCCCC(N)C(=O)NCCCNCCCCNCCCN [Compound 24, L-Lys-ε-(2-[2-(2-methoxyethoxy)ethoxy]acetoyl)-N^1-spermine] | > 1000 µM | 572 µM |  | IC50 [1, 7]: > 1000 µM |
| COCCOCC(=O)NCCCCC(N)C(=O)NCCCNCCCCNCCCN [Compound 25, L-Lys-ε-(2-(2-methoxyethoxy)acetoyl)-N^1-spermine] | > 1000 µM | 495 µM |  | IC50 [1, 7]: > 1000 µM |
| CCCC/C=C\CCCCCCCCCCNCCCCC(N)C(=O)NCCCNCCCCNCCCN (stereo not shown) [Compound 27] | 0.66 µM | 2.59 µM |  | IC50 ([2]; b47, cis-unsaturated vs saturated alkyl): 2.6 µM |
| CCCCCCCNCCCCC(N)C(=O)NCCCNCCCCNCCCN (stereo not shown) [Compound 28] |  | 3.86 µM |  | IC50 [1, 3]: 82.3 µM |
| CCCCCCCNCCCCC(N)C(=O)NCCCNCCCCNCCCN (stereo not shown) [Compound 29] | 46 µM | 5.99 µM |  | IC50 [1, 3]: 46.4 µM |
| CCCCCCCN(CCCCCCC)CCCC[C@H](N)C(=O)NCCCNCCCCNCCCN [Compound 30, L-Lys-ε-(bis-(n-heptyl))-N^1-spermine] |  | 2.14 µM |  | IC50 [1, 3]: 38.8 µM |
| CCCCCCNCCCCC(N)C(=O)NCCCNCCCCNCCCN (stereo not shown) [Compound 31] | > 1000 µM | 7.13 µM |  |  |
| CC(C)=CCC[C@H](C)CCNCCCCC(N)C(=O)NCCCNCCCCNCCCN (stereo partly shown) [Compound 32] | > 1000 µM | 9.6 µM and 9.55 µM |  |  |
| CC(C)(C)CCNCCCCC(N)C(=O)NCCCNCCCCNCCCN (stereo not shown) [Compound 33] | > 1000 µM | 12.1 µM |  |  |

| Compound | IC50 [1, 4] | EC50 [2] | IC50 [1, 5] | other results |
| --- | --- | --- | --- | --- |
| CC(C)(C)CCNCCCCC(N)C(=O)NCCCNCCCCNCCCN [Compound 34, D-Lys-ε-(3,3-dimethyl-1-butyl)-N^1-spermine] |  | 10.9 µM |  | IC50 [1, 3]: 838 µM |
| CC(C)CNCCCCC(N)C(=O)NCCCNCCCCNCCCN [Compound 35, D-Lys-ε-(3-methylpropyl)-N^1-spermine] | 72.9 µM | 101 µM |  |  |
| NCCCNCCCCNCCCNC(=O)C(N)CCCCNCC1CCCCC1 (stereo not shown) [Compound 37] | > 1000 µM | 9.8 µM and 9.84 µM |  |  |
| NCCCNCCCCNCCCNC(=O)C(N)CCCCN(CC1CCCCC1)CC1CCCCC1 [Compound 38, L-Lys-ε-(bis-(cyclohexyl))-N^1-spermine] |  | 4 µM and 4.04 µM |  | IC50 [1, 3]: > 1000 µM |
| NCCCNCCCCNCCCNC(=O)C(N)CCCCNCc1ccc(-c2ccccc2)cc1 [Compound 39, D-Lys-ε-(4-phenylbenzyl)-N^1-spermine] |  | 3.7 µM and 3.71 µM |  | IC50 [1, 3]: 105 µM; IC50 [1, 6]: > 100 µM |
| CCCCCCCCCCCCCC(=O)NCCCCC(N)C(=O)NCCCNCCCCNCCCN (stereo not shown) [Compound 41] |  |  | 26 µM |  |
| CCCCCCCCCCCCCCCCCCCC(=O)NCCCCC(N)C(=O)NCCCNCCCCNCCCN (stereo not shown) [Compound 42] |  |  | 5.77 µM |  |
| CCCCCCCCCCCCCCNCCCCC(N)C(=O)NCCCNCCCCNCCCN (stereo not shown) [Compound 43] |  |  | 6.17 µM |  |
| CCCCCCCCCCCCCCCCCCNCCCC[C@H](N)C(=O)NCCCNCCCCNCCCN [Compound 44, L-Lys-ε-(octadecanyl)-N^1-spermine] |  |  | 2.25 µM | prevention of LPS-induced NO release from J774.A1 macrophages [1]: high activity; prevention of LPS-induced NFκβ cytokine release from stimulated lymphocytes (NFκB): high activity |
| CCCCCCCCCCCCCCCCCCCCNCCCCC(N)C(=O)NCCCNCCCCNCCCN (stereo not shown) [Compound 45] |  |  | 3.67 µM |  |
| CCCCCCCCCCCCCCNCCCCC(N)C(=O)NCCCNCCCCNCCCN (stereo not shown) [Compound 46] |  |  | 5.34 µM |  |
| CCCCCCCCCCCCCCCCNCCCCC(N)C(=O)NCCCNCCCCNCCCN (stereo not shown) [Compound 47] |  |  | 6.89 µM |  |
| CCCCCCCCCCCCCCCCCCNCCCC[C@@H](N)C(=O)NCCCNCCCCNCCCN [Compound 48, D-Lys-ε-(octadecanyl)-N^1-spermine] |  |  | 3.08 µM | prevention of LPS-induced NO release from J774.A1 macrophages [1]: high activity; prevention of LPS-induced NFκβ cytokine release from stimulated lymphocytes (NFκB): high activity |
| CCCCCCCCCCCCCCCCCCCCNCCCCC(N)C(=O)NCCCNCCCCNCCCN (stereo not shown) [Compound 49] |  |  | 2.2 µM |  |
| CCCCCCCCCCCCCC(=O)NCCCCCC(=O)NCCCNCCCCNCCCN [Compound 50] |  |  | 48.4 µM |  |
| CCCCCCCCCCCCCCCCCC(=O)NCCCCCC(=O)NCCCNCCCCNCCCN [Compound 52] |  |  | 29.6 µM |  |
| CCCCCCCCCCCCCCCCCCCC(=O)NCCCCCC(=O)NCCCNCCCCNCCCN [Compound 53] |  |  | 26.6 µM |  |
| CCCCCCCCCCCCCCNCCCCCC(=O)NCCCNCCCCNCCCN [Compound 54] |  |  | 9.48 µM |  |
| CCCCCCCCCCCCCCCCNCCCCCC(=O)NCCCNCCCCNCCCN [Compound 55] |  |  | 6.12 µM |  |
| CCCCCCCCCCCCCCCCCCNCCCCCC(=O)NCCCNCCCCNCCCN [Compound 56] |  |  | 5.34 µM |  |
| CCCCCCCCCCCCCCCCCCCCNCCCCCC(=O)NCCCNCCCCNCCCN [Compound 57] |  |  | 5.02 µM |  |
